How the values were obtained:
TGFBR2 = target: T1, TGFBR2 (Homo sapiens, UniProt P37173); experiment: TGFBR2 RBC assay (enzyme inhibition assay, Reaction Biology Corp.); type: biochemical
T1 construct: purchased Reaction Biology Corp
Experimental: Compounds of the disclosure were also assayed by Reaction Biology Corp. using the TGFBR2 RBC assay (enzyme inhibition assay). […] NT refers to not tested.

[1] = tested on: TGFβ/SMAD Signaling Pathway SBE reporter cell line; experiment: TGFβ reporter assay, in vitro small molecule screening (luciferase); type: cell-based; conditions: TGFβ stimulation, luminescence
Experimental: TGFβ/SMAD Signaling Pathway SBE reporter cell line was obtained from BPS Bioscience. Cells were passed, expanded, and stored in liquid nitrogen as per the supplier's instructions with the exception that growth media is changed to DMEM-C with Geneticin (DMEM supplemented with 10% fetal bovine serum, 1×NEAA, 1 mM Pyruvate, 2 mM glutamine, 50 μg/mL penicillin, 50 U/mL streptomycin and 400 μg/mL of Geneticin). The assay media was MEM supplemented with 0.5% fetal bovine serum, 1×NEAA, 1 mM Pyruvate, 50 μg/mL penicillin and 50 U/mL streptomycin.
Test samples (at desired concentrations diluted in assay media) were added to a 96-well assay plate, 20 μL per well. Reporter cells were harvested from the tissue culture flasks by incubation in small quantity of PBS at 37° C. for two minutes after the media in the flask is removed and cells rinsed with PBS. Cells were counted and diluted in the assay media at approximately 0.5×10^6 cells/mL and then 80 μL/well of cells were added to the assay plate containing the 20 μL/well of test samples (or media only), and incubated for approximately 5-6 hours at 37° C. in a 5% CO2 humidified incubator. After that time, 15 μL of TGFβ diluted to 12 ng/mL in the assay media was added to the plate. Controls included TGFβ titration (from 50 to 0 ng/mL) without inhibitors, and media only (without cells, inhibitor or TGFβ). Plates were incubated at 37° C. in a 5% CO2 humidified incubator for 18 h. Luciferase substrate solution is subsequently added at 100 μL per well, incubated in the dark at room temperature for 15 min, and luminescence is measured using a luminometer. EC50 values and curve fits were obtained using Prism (GraphPad Software).

T1 sequence (P37173 23-567): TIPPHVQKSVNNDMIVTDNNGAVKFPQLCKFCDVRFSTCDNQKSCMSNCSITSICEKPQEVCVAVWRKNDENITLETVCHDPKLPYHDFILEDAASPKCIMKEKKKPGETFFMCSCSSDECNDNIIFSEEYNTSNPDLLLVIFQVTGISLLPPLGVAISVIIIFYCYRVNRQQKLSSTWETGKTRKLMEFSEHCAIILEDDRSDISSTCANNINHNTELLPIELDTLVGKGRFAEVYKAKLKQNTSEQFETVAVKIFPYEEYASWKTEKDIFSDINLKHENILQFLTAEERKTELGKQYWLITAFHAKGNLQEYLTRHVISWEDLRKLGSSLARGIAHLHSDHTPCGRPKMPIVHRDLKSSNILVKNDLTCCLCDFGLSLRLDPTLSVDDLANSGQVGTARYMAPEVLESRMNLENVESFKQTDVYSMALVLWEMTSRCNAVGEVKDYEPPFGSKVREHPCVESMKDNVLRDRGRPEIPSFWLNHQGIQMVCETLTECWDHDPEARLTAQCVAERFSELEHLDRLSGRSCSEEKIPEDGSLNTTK

| SMILES | IC50 (TGFBR2) [nM] | EC50 [1] [nM] |
| --- | --- | --- |
| Nc1ncc(-c2ccc(CCCNC(=O)OCc3ccccc3)cc2)cc1C(=O)Nc1cnccc1N1CCOCC1 [Compound 79] | > 1000 | 100 to 1000 |
| NCCNC(=O)Cc1ccc(-c2cnc(N)c(C(=O)Nc3cnccc3N3CCOCC3)n2)cc1 [Compound 80] | 50 to 100 | 100 to 1000 |
| CC(C)(C)OC(=O)N1CCN(C(=O)c2ccc(-c3cnc(N)c(C(=O)Nc4cnccc4N4CCOCC4)n3)cc2)CC1 [Compound 81] | 100 to 1000 | 50 to 100 |
| Nc1ncc(-c2ccc(N3CCNCC3=O)cc2)nc1C(=O)Nc1cnccc1N1CCOCC1 [Compound 84] | 100 to 1000 | 100 to 1000 |
| Nc1ncc(-c2ccc(CN3CCNCC3)cc2)nc1C(=O)Nc1cnccc1N1CCOCC1 [Compound 91] | 50 to 100 | 50 to 100 |
| NCCc1ccc(-c2cnc(N)c(C(=O)Nc3cnccc3CN3CCCC3)n2)cc1 [Compound 93] | 100 to 1000 | 100 to 1000 |
| Nc1ncc(-c2ccc(CCNC(=O)OCc3ccccc3)cc2)nc1C(=O)Nc1cnccc1N1CC2(COC2)C1 [Compound 95] | > 1000 | > 1000 |
| COC1CN(c2ccncc2NC(=O)c2nc(-c3ccc(CCNC(=O)OCc4ccccc4)cc3)cnc2N)C1 [Compound 96] | > 1000 | > 1000 |
| COCCCNc1ccncc1NC(=O)c1nc(-c2ccc(CCN)cc2)cnc1N [Compound 97] | > 1000 | > 1000 |
| COC1CN(c2ccncc2NC(=O)c2nc(-c3ccc(CCN)cc3)cnc2N)C1 [Compound 98] | > 1000 | > 1000 |
| COCCN(C)c1ccncc1NC(=O)c1nc(-c2ccc(CCNC(=O)OCc3ccccc3)cc2)cnc1N [Compound 101] | 50 to 100 | 100 to 1000 |
| COCCN(C)c1ccncc1NC(=O)c1nc(-c2ccc(CCN)cc2)cnc1N [Compound 102] | 100 to 1000 | 100 to 1000 |
| NCCc1ccc(-c2cnc(N)c(C(=O)Nc3cnccc3NCC(N)=O)n2)cc1 [Compound 104] | > 1000 | > 1000 |
| C[C@H](NC(=O)OCC1c2ccccc2-c2ccccc21)C(=O)NCc1ccc(-c2cnc(N)c(C(=O)Nc3cnccc3N3CCOCC3)n2)cc1 [Compound 105] | 100 to 1000 | 100 to 1000 |
| C[C@H](N)C(=O)NCc1ccc(-c2cnc(N)c(C(=O)Nc3cnccc3N3CCOCC3)n2)cc1 [Compound 106] | 50 to 100 | 100 to 1000 |
| CC(C)[C@H](N)C(=O)N[C@@H](C)C(=O)NCc1ccc(-c2cnc(N)c(C(=O)Nc3cnccc3N3CCOCC3)n2)cc1 [Compound 108] | 50 to 100 | 50 to 100 |
| CN(CC#N)c1ccncc1NC(=O)c1nc(-c2ccc(CCNC(=O)OCc3ccccc3)cc2)cnc1N [Compound 113] | > 1000 | > 1000 |
| Nc1ncc(N2CCC3(CCNCC3)C2)nc1C(=O)Nc1cnccc1N1CCOCC1 [Compound 114] | > 1000 | > 1000 |
| CC(C)(C)OC(=O)N1CCN(c2cnc(N)c(C(=O)Nc3cnccc3N3CCOCC3)n2)CC1 [Compound 115] | > 1000 | > 1000 |
| Nc1ncc(-c2ccc(CCNC(=O)OCc3ccccc3)cn2)nc1C(=O)Nc1cnccc1N1CCOCC1 [Compound 116] | 100 to 1000 | 100 to 1000 |
| NCCc1ccc(-c2cnc(N)c(C(=O)Nc3cnccc3N3CCOCC3)n2)nc1 [Compound 117] | 100 to 1000 | > 1000 |
| Nc1ncc(N2CCNCC2)nc1C(=O)Nc1cnccc1N1CCOCC1 [Compound 118] | > 1000 | > 1000 |
| CC(C)(C)OC(=O)NC1CCN(c2cnc(N)c(C(=O)Nc3cnccc3N3CCOCC3)n2)CC1 [Compound 122] | > 1000 | > 1000 |
| Nc1ncc(-c2ccc(CCNC(=O)OCc3ccccc3)nc2)nc1C(=O)Nc1cnccc1N1CCOCC1 [Compound 124] | 100 to 1000 | 100 to 1000 |

Further lines, results first:

| IC50 (TGFBR2) [nM] | EC50 [1] [nM] | SMILES |
| --- | --- | --- |
| < 50 | 100 to 1000 | NCCNC(=O)c1ccc(-c2cnc(N)c(C(=O)Nc3cnccc3N3CCOCC3)n2)cc1 [Compound 75] |
| < 50 | 100 to 1000 | Nc1ncc(-c2ccc(C(=O)NCCNC(=O)OCc3ccccc3)cc2)nc1C(=O)Nc1cnccc1N1CCOCC1 [Compound 76] |
| 50 to 100 | 50 to 100 | Nc1ncc(-c2ccc3c(c2)CCNC3)nc1C(=O)Nc1cnccc1N1CCOCC1 [Compound 77] |
| < 50 | < 50 | CC(C)(C)OC(=O)N1CCc2cc(-c3cnc(N)c(C(=O)Nc4cnccc4N4CCOCC4)n3)ccc2C1 [Compound 78] |
| < 50 | < 50 | CC(C)(C)OC(=O)N1CCN(Cc2ccc(-c3cnc(N)c(C(=O)Nc4cnccc4N4CCOCC4)n3)cc2)C(=O)C1 [Compound 85] |
| < 50 | 100 to 1000 | Nc1nc(-c2ccc(CCC(=O)N3CCN(C(=O)OCc4ccccc4)CC3)cc2)cnc1C(=O)Nc1cnccc1N1CCOCC1 [Compound 86] |
| < 50 | 50 to 100 | Nc1ncc(-c2ccc(CN3CCNCC3=O)cc2)nc1C(=O)Nc1cnccc1N1CCOCC1 [Compound 87] |
| < 50 | 50 to 100 | Nc1ncc(-c2ccc(CCC(=O)N3CCNCC3)cc2)nc1C(=O)Nc1cnccc1N1CCOCC1 [Compound 88] |
| < 50 | 50 to 100 | CC(C)(C)OC(=O)N1CCN(Cc2ccc(-c3cnc(N)c(C(=O)Nc4cnccc4N4CCOCC4)n3)cc2)CC1 [Compound 89] |
| < 50 | 50 to 100 | Nc1ncc(-c2ccc(CC(=O)N3CCN(C(=O)OCc4ccccc4)CC3)cc2)nc1C(=O)Nc1cnccc1N1CCOCC1 [Compound 90] |
| < 50 | 100 to 1000 | Nc1ncc(-c2ccc(CC(=O)N3CCNCC3)cc2)nc1C(=O)Nc1cnccc1N1CCOCC1 [Compound 92] |
| < 50 | 100 to 1000 | Nc1ncc(-c2ccc(CC(=O)NCCNC(=O)OCc3ccccc3)cc2)nc1C(=O)Nc1cnccc1N1CCOCC1 [Compound 94] |
| < 50 | 100 to 1000 | COCCCN(C)c1ccncc1NC(=O)c1nc(-c2ccc(CCN)cc2)cnc1N [Compound 103] |
| < 50 | 100 to 1000 | CC(C)[C@H](NC(=O)OC(C)(C)C)C(=O)N[C@@H](C)C(=O)NCc1ccc(-c2cnc(N)c(C(=O)Nc3cnccc3N3CCOCC3)n2)cc1 [Compound 107] |
| < 50 | 100 to 1000 | CC(C)(C)OC(=O)N1CCC[C@H]1C(=O)NCc1ccc(-c2cnc(N)c(C(=O)Nc3cnccc3N3CCOCC3)n2)cc1 [Compound 109] |
| < 50 | 100 to 1000 | Nc1ncc(-c2ccc(CNC(=O)[C@@H]3CCCN3)cc2)nc1C(=O)Nc1cnccc1N1CCOCC1 [Compound 110] |
| < 50 | 100 to 1000 | CC(C)[C@H](NC(=O)OC(C)(C)C)C(=O)N1CCC[C@H]1C(=O)NCc1ccc(-c2cnc(N)c(C(=O)Nc3cnccc3N3CCOCC3)n2)cc1 [Compound 111] |
| < 50 | 50 to 100 | CC(C)[C@H](N)C(=O)N1CCC[C@H]1C(=O)NCc1ccc(-c2cnc(N)c(C(=O)Nc3cnccc3N3CCOCC3)n2)cc1 [Compound 112] |
| < 50 | > 1000 | Nc1ncc(-c2ccc(CCNC(=O)OCc3ccccc3)cc2)nc1C(=O)Nc1cnccc1-n1ccnn1 [Compound 120] |
| < 50 | 100 to 1000 | Nc1ncc(-c2ccc(CCNC(=O)OCc3ccccc3)cc2)nc1C(=O)Nc1cnccc1-c1ccccc1 [Compound 121] |
